Values quoted from earlier work, collected in PMC8008885 (Journal of Enzyme Inhibition and Medicinal Chemistry, 2021).

Test system: HD transgenic mice
Conditions: cited from earlier work

| Compound | neuroprotective effects by suppressing elevated SETDB1 and H3K9me3 level | H3K9 trimethylation | SETDB1 gene expression | behaviour and neuropathological phenotype |
| --- | --- | --- | --- | --- |
| COC(=O)[C@@H]1c2cc3c(c(O)c2[C@@H](O[C@@H]2O[C@@H](C)[C@H](OC)[C@@](C)(OC)[C@H]2OC)C[C@]1(C)O)C(=O)c1c(O)cc2c(c1C3=O)O[C@@H]1O[C@@]2(C)[C@H](O)[C@@H](N(C)C)[C@@H]1O [nogalamycin] | improved neuroprotective effects | – | – | – |
| NCCSSCCN [cystamine] | – | reduced | down-regulates | improved |
| mithramycin | – | reduced | down-regulates | improved |
